Data as given in patent publication US20030056788A1, “Partial liquid breathing of fluorocarbons” (priority 1991, published 2003).

What was measured:
[1] = Vapor pressure of fluorocarbons
[2] = Surface and interfacial tensions and spreading coefficients of perfluorocarbons on saline; assay type: physicochemical; set-up: S(o on w) spreading coefficient: unit: mN/m; conditions: T = 25 C; for γo/w (interfacial tension oil/water) / S(o on w) spreading coefficient: on saline; for S(o on w) spreading coefficient: S = γw/a − (γw/o + γo/a)
Description: The ability of a given substance to cover a measured surface area can be described by its spreading coefficient. The spreading coefficients for fluorocarbons can be expressed by the following equation:
S(o on w)=γw/a−(γw/o+γo/a)
Where S (o on w) represents the spreading coefficient; γ=interfacial tension; w/a=water/air; w/o=water/oil; and o/a=oil/air.
Fluorocarbons having spreading coefficients of at least one are particularly preferred. If the spreading coefficient is negative, the compound will tend to remain as a lens on the membrane surface. Adequate coverage of the lung surface is important for restoring oxygen and carbon dioxide transfer and for lubricating the lung surfaces to minimize further pulmonary trauma.
Each perfluorocarbon tested is provided together with its molecular weight and the specific variables that are used to calculate the spreading coefficient S (o on w). The perfluorocarbons reported are PFOB, perfluorotributylamine (FC-17), perfluorodecalin (APF-140), dimethyl perfluorodecalin (APF-175), trimethyl decalin (APF-200), perfluoroperhydrophenanthrene (APF-215), pentamethyl decalin (APF-240), and octamethyl decalin (APF-260).

[3] = system: rabbits following lung lavage to remove endogenous surfactant; test: Partial liquid ventilation with PFOB in rabbit model of respiratory insufficiency induced by lung lavage; assay type: in vivo, New Zealand rabbits; conditions: rabbits after lung lavage
Description: The following examples provide information relating to the effect of PFOB treatment on respiratory insufficiency in an experimental rabbit model. The general protocol for partial liquid ventilation of the rabbits is described below.
New Zealand rabbits weighing between 2.8 and 3.0 kg were anesthetized with 50 mg/kg of […] sodium iv and a cannula was inserted through a tracheotomy midway along the trachea with its tip proximal to the carina. Ventilation with a Servo ventilator 900C (Siemens-Elema, Sweden) was initiated using pure oxygen and zero end-expiratory pressure with a constant tidal volume of 12 ml/kg, frequency of 30/min and inspiratory time of 35%. Anesthesia was maintained with additional doses of pentobarbital, as required, and pancuronium bromide was administered as an intravenous bolus (0.1 mg/kg) and followed by a continuous infusion (0.1 mg/kg/hr) for muscle paralyzation. A solution of 5% dextrose and 0.45% NaCl was administered continuously at a rate of 10 ml/kg/hr as a maintenance fluid. A heating pad maintained core temperature at 37±1° C., monitored by an esophageal thermistor (Elektroalboratoriet, Copenhagen).
Left femoral artery and vein were each cannulated with polyvinyl catheters for arterial and central venous pressure recording and blood sampling. A special indwelling catheter (Mikro-pO2-Messkatheter, Licox) was inserted into the right femoral artery for continuous oxygen pressure monitoring (Licox, GMS, Germany). Arterial blood gas and Hb (hemoglobin) measurements were made by Osm-2 Hemoximeter and ABL-330 (Radiometer Copenhagen). Lung mechanics and end-tidal CO2 were measured by means of Lung Mechanics Calculator 940 (Siemens-Elema, Sweden) and CO2 Analyzer 930 (Siemens-Elema, Sweden), respectively. Intravascular pressure monitoring was made by using a Statham P23XL transducer (Spectramed, USA) and all tracings including ECG were recorded by a Sirecust 1280 recorder (Siemens).
After the control observations were made, lung lavage with 30 ml/kg of warm saline (37° C.) was performed to induce respiratory insufficiency. After the first lavage, positive end expiratory pressure (PEEP) was increased to 6 cmH2O and lung lavages were repeated to get an arterial pO2 below 100 mmHg with the initial ventilatory settings (between 4-6 lavages). […]
After respiratory insufficiency was induced, PFOB liquid was administered through the tracheal cannula into the animal's lungs with incremental doses of 3 ml/kg up to a total volume of 15 ml/kg. Animals were ventilated for 15 minutes after each dose of PFOB instillation with the same ventillatory settings as mentioned above and thereafter arterial blood gases, cardiocirculatory parameters and pulmonary mechanics were measured. […]

| Molecule | γo/a (interfacial tension oil/air) [2] [mN/m] | γo/w (interfacial tension oil/water) [2] [mN/m] | S(o on w) spreading coefficient [2] | other results |
| --- | --- | --- | --- | --- |
| FC(F)(F)C(F)(F)C(F)(F)C(F)(F)C(F)(F)C(F)(F)Br [1-bromotridecafluorohexane] |  |  |  | vapor pressure (in words) [1]: relatively high vapor pressures |
| FC1(F)C(F)(F)C(F)(F)C2(F)C(F)(F)C(F)(F)C(F)(F)C(F)(F)C2(F)C1(F)F (stereo not drawn) [APF-140, perfluorodecalin] | 18.2 | 55.3 |  |  |
| FC1(F)C(F)(F)C(F)(F)C2(F)C(F)(C1(F)F)C(F)(F)C(F)(F)C1(F)C(F)(F)C(F)(F)C(F)(F)C(F)(F)C12F (stereo not drawn) [APF-215, perfluoroperhydrophenanthrene] | 21.6 | 56.0 | −5.6 |  |
| FC(F)(F)C(F)(F)C(F)(F)C(F)(F)N(C(F)(F)C(F)(F)C(F)(F)C(F)(F)F)C(F)(F)C(F)(F)C(F)(F)C(F)(F)F [FC-47, perfluorotributylamine] | 17.9 | 55.1 |  |  |
| FC(F)(F)C(F)(F)C(F)(F)C(F)(F)C(F)(F)C(F)(F)C(F)(F)C(F)(F)Br [PFOB, 1-bromo-heptadecafluoro-octane] | 18.0 | 51.3 |  | arterial oxygen pressure as percent of original (pre-lavage) value ([3]; 15 ml/kg PFOB intratracheal, n = 6): 83%; mean arterial carbon dioxide tension (in words) ([3]; after PFOB administration, post-lavage level 48.7 mmHg): decreased; mean airway pressure (in words) ([3]; increasing volumes of PFOB): decreased mean airway pressure; arterial oxygen tension (in words) ([3]; increasing volumes of PFOB 3-15 ml/kg intratracheal, compared to saline treated controls): significantly improved the arterial oxygen tension; vapor pressure ([1]; 37° C.): 14 torr |
| dimethyl perfluorodecalin [APF-175] | 20.7 | 55.9 | −4.6 |  |
| octamethyl decalin [APF-260] | 22.4 | 56.1 | −6.5 |  |
| pentamethyl decalin [APF-240] | 22.6 | 56.3 | −6.9 |  |
| trimethyl decalin [APF-200] | 21.4 | 55.9 | −5.3 |  |
